27 compounds from patent publication US6635771B2, “N-benzhydryl indole compounds” (Wyeth, priority 2001, dated 2003) can be followed below.

Each structure is given as a SMILES string.

The assay concerns the target T1, cPLA2 (Homo sapiens, UniProt P47712).
T1 sequence (P47712 1-749): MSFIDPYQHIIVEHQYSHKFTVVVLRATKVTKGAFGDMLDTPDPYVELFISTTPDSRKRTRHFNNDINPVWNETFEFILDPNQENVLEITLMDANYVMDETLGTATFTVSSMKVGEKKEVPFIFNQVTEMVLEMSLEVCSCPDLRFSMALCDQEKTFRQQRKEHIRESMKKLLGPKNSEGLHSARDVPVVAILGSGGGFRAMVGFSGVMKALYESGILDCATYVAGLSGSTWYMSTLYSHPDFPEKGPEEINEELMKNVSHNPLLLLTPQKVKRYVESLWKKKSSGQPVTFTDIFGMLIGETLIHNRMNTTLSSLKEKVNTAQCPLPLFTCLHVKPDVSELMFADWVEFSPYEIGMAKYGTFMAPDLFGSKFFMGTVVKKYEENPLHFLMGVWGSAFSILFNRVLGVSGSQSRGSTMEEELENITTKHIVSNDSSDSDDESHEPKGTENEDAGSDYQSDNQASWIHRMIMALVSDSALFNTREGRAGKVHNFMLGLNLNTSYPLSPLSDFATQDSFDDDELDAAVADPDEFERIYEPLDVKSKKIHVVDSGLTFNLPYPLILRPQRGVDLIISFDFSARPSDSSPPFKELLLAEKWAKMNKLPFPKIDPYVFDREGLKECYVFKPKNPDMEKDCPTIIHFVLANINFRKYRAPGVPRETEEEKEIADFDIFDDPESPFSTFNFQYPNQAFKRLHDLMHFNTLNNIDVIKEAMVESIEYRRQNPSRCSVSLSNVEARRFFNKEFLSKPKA
Nature of the assay: Coumarine Assay. It is filed as biochemical. To be noted: 60 μM 7-hydroxycoumarinyl 6-heptenoate substrate, 4 μg cPLA2, pH 7.5, fluorescence ex 360 nm / em 460 nm; read-out: Coumarin IC50.
Method: Inhibitors were mixed with 200 μL assay buffer (80 mM Heped, pH 7.5, 1 mM EDTA) containing 60 μM 7-hydroxycoumarinyl 6-heptenoate. The reaction was initiated by adding 4 μg cPLA2 in 50 μL assay buffer. Hydrolysis of the 7-hydroxycounarimyl 6-heptenoate ester was monitored in a fluorometer by exciting at 360 nm and monitoring emission at 460 nm. Enzyme activity is proportional to the increase in emission at 460 nm per minute. In the presence of a cPLA2 inhibitor, the rate of increase is less.
The IC50 is the concentration at which inhibition is half-maximal. `N#Cc1cccc(CS(=O)(=O)NCCc2c(CCOc3ccc(C(=O)O)cc3)c3cc(Cl)ccc3n2C(c2ccccc2)c2ccccc2)c1` [Example 36, 4-{2-[1-Benzhydryl-5-chloro-2-(2-{[(3-cyanobenzyl)sulfonyl]amino}ethyl)-1H-indol-3-yl]ethoxy}benzoic acid]: the IC50 came to 500 nM.
Next, `N#Cc1ccc(CS(=O)(=O)NCCc2c(CCOc3ccc(C(=O)O)cc3)c3cc(Cl)ccc3n2C(c2ccccc2)c2ccccc2)cc1` [Example 37, 4-{2-[1-Benzhydryl-5-chloro-2-(2-{[(4-cyanobenzyl)sulfonyl]amino}ethyl)-1H-indol-3-yl]ethoxy}benzoic acid]: 370 nM; `O=C(O)c1ccc(OCCc2c(CCNS(=O)(=O)Cc3ccc(S(=O)(=O)N4CCCCC4)cc3)n(C(c3ccccc3)c3ccccc3)c3ccc(Cl)cc23)cc1` [Example 38, 4-(2-{1-Benzhydryl-5-chloro-2-[2-({[4-(1piperidinylsulfonyl)benzyl]sulfonyl}amino)ethyl]-1H-indol-3-yl}ethoxy)benzoic acid]: 500 nM; `NS(=O)(=O)c1ccc(CS(=O)(=O)NCCc2c(CCOc3ccc(C(=O)O)cc3)c3cc(Cl)ccc3n2C(c2ccccc2)c2ccccc2)cc1` [Example 39, 4-(2-{2-[2-({[4-(Aminosulfonyl)benzyl]sulfonyl}amino)ethyl]-1-benzhydryl-5-chloro-1H-indol-3-yl}ethoxy)benzoic acid]: 320 nM.
Next, `CS(=O)(=O)c1ccc(CS(=O)(=O)NCCc2c(CCOc3ccc(C(=O)O)cc3)c3cc(Cl)ccc3n2C(c2ccccc2)c2ccccc2)cc1` [Example 40, 4-(2-{1-Benzhydryl-5-chloro-2-[2-(4-methanesulfonyl-phenylmethanesulfonylamino)-ethyl]-1H-indol-3-yl}-ethoxy)-benzoic acid]: 730 nM; `CCN(CC)S(=O)(=O)c1ccc(CS(=O)(=O)NCCc2c(CCOc3ccc(C(=O)O)cc3)c3cc(Cl)ccc3n2C(c2ccccc2)c2ccccc2)cc1` [Example 41, 4-(2-{1-Benzhydryl-5-chloro-2-[2-(4-diethylsulfamoyl-phenylmethanesulfonylamino) -ethyl]-1H-indol-3-yl}-ethoxy)-benzoic acid]: 200 nM; `O=C(O)c1ccc(CCCc2c(CCNS(=O)(=O)Cc3ccccc3)n(C(c3ccccc3)c3ccccc3)c3ccc(Cl)cc23)cc1` [Example 42, 4-{3-[1-Benzhydryl-5-chloro-2-(2-phenylmethanesulfonylamino-ethyl)-1H-indol-3-yl]-propyl)-benzoic acid]: 180 nM.
Next, `O=C(O)c1ccc(CCCc2c(CCNS(=O)(=O)Cc3cc(Cl)cc(Cl)c3)n(C(c3ccccc3)c3ccccc3)c3ccc(Cl)cc23)cc1` [Example 43, 4-{3-[1-benzhydryl-5-chloro-2-(2-{[(3,5-dichlorobenzyl)sulfonyl]amino}ethyl)-1H-indol-3-yl]propyl}benzoic acid]: 200 nM; `O=C(O)c1ccc(OCCc2c(CCNS(=O)(=O)CCNC(=O)c3ccccc3C(=O)O)n(C(c3ccccc3)c3ccccc3)c3ccc(Cl)cc23)cc1` [Example 48, 2-{[(2-{[(2-{1-benzhydryl-3-[2-(4-carboxyphenoxy)ethyl]-5-chloro-1H-indol-2-yl}ethyl)amino]sulfonyl}ethyl)amino]carbonyl}benzoic acid]: 2350 nM; `O=C(O)c1ccc(OCCc2c(CCNS(=O)(=O)Cc3cccnc3)n(C(c3ccccc3)c3ccccc3)c3ccc(Cl)cc23)cc1` [Example 49]: 1100 nM.
On to `O=C(O)c1ccc(OCCc2c(CCNS(=O)(=O)Cc3ccncc3)n(C(c3ccccc3)c3ccccc3)c3ccc(Cl)cc23)cc1` [Example 50], for which the IC50 is 690 nM.
Next, `O=C(O)c1ccc(OCCc2c(CCNS(=O)(=O)Cc3ccccn3)n(C(c3ccccc3)c3ccccc3)c3ccc(Cl)cc23)cc1` [Example 51]: 2200 nM; `Cc1cccc(C)c1CS(=O)(=O)NCCc1c(CCCc2ccc(C(=O)O)cc2)c2cc(Cl)ccc2n1C(c1ccccc1)c1ccccc1` [Example 52, 4-{3-[1-benzhydryl-5-chloro-2-(2-{[(2,6-dimethylbenzyl)sulfonyl]amino}ethyl)-1H-indoly-3-yl]propyl}benzoic acid]: 130 nM.
For the compound `O=C(O)c1ccc(OCCc2c(CCNS(=O)(=O)Cc3ccc([N+](=O)[O-])cc3)n(C(c3ccccc3)c3ccccc3)c3ccc(Cl)cc23)cc1` [Example 54, 4-{2-[1-benzhydryl-5-chloro-2-(2-{[(4-nitrobenzyl)sulfonyl]amino}ethyl)-1H-indol-3-yl]ethoxy}benzoic acid], the IC50 came out at 310 nM.
Next, `O=C(O)c1ccc(OCCc2c(CCNS(=O)(=O)Cc3cccc([N+](=O)[O-])c3)n(C(c3ccccc3)c3ccccc3)c3ccc(Cl)cc23)cc1` [Example 55, 4-{2-[1-benzhydryl-5-chloro-2-(2-{[(3-nitrobenzyl)sulfonyl]amino}ethyl)-1H-indol-3-yl]ethoxy}benzoic acid]: 260 nM; `O=C(O)c1ccc(CCCc2c(CCNS(=O)(=O)Cc3ccc(F)cc3)n(C(c3ccccc3)c3ccccc3)c3ccc(Cl)cc23)cc1` [Example 57]: 280 nM; `O=C(O)c1ccc(CCCc2c(CCNS(=O)(=O)Cc3ccc(C(F)(F)F)cc3)n(C(c3ccccc3)c3ccccc3)c3ccc(Cl)cc23)cc1` [Example 58, 4-(3-{1-benzhydryl-5-chloro-2-[2-({[4-(trifluoromethyl)benzyl]sulfonyl}amino)ethyl]-1H-indol-3-yl}propyl)benzoic acid]: 360 nM.
Next, `O=C(O)c1ccc(CCCc2c(CCNS(=O)(=O)Cc3cccc(C(F)(F)F)c3)n(C(c3ccccc3)c3ccccc3)c3ccc(Cl)cc23)cc1` [Example 59, 4-(3-{1-benzhydryl-5-chloro-2-[2-({[3-(trifluoromethyl)benzyl]sulfonyl}amino)ethyl]-1H-indol-3-yl}propyl)benzoic acid]: 290 nM; `O=C(O)c1ccc(CCCc2c(CCNS(=O)(=O)Cc3ccccn3)n(C(c3ccccc3)c3ccccc3)c3ccc(Cl)cc23)cc1` [Example 61, 4-{3-[1-benzhydryl-5-chloro-2-(2-{[(2-pyridinylmethyl)sulfonyl]amino}ethyl)-1H-indol-3-yl]propyl}benzoic acid]: 340 nM; `O=C(O)c1ccc(CCCc2c(CCNS(=O)(=O)Cc3cccnc3)n(C(c3ccccc3)c3ccccc3)c3ccc(Cl)cc23)cc1` [Example 62, 4-(3-[1-benzhydryl-5-chloro-2-(2-{[(3-pyridinylmethyl)sulfonyl]amino}ethyl)-1H-indol-3-yl]propyl}benzoic acid]: 380 nM.
Next, `O=C(O)c1ccc(CCCc2c(CCNS(=O)(=O)Cc3ccncc3)n(C(c3ccccc3)c3ccccc3)c3ccc(Cl)cc23)cc1` [Example 63, 4-{3-[1-benzhydryl-5-chloro-2-(2-{[(4-pyridinylmethyl)sulfonyl]amino}ethyl)-1H-indol-3-yl]propyl}benzoic acid]: 300 nM.
Turning to `O=C(O)c1ccc(CCCc2c(CCNS(=O)(=O)Cc3cccc([N+](=O)[O-])c3)n(C(c3ccccc3)c3ccccc3)c3ccc(Cl)cc23)cc1` [Example 65, 4-{3-[1-benzhydryl-5-chloro-2-(2-{[(3-nitrobenzyl)sulfonyl]amino}ethyl)-1H-indol-3-yl]propyl}benzoic acid], the IC50 was 130 nM.
Next, `O=C(O)c1ccc(CCCc2c(CCNS(=O)(=O)Cc3cccc(Cl)c3)n(C(c3ccccc3)c3ccccc3)c3ccc(Cl)cc23)cc1` [Example 66, 4-{3-[1-benzhydryl-5chloro-2-(2{[(3-chlorobenzyl)sulfonyl]amino}ethyl)-1H-indol-3-yl]propyl}benzoic acid]: 150 nM; `O=C(O)c1ccc(CCCc2c(CCNS(=O)(=O)Cc3cc(Cl)ccc3Cl)n(C(c3ccccc3)c3ccccc3)c3ccc(Cl)cc23)cc1` [Example 67, 4-{3-[1-benzhydryl-5-chloro-2-(2-{[(2,5-dichlorobenzyl)sulfonyl]amino}ethyl)-1H-indol-3-yl]propyl}benzoic acid]: 140 nM.
Next, `COc1cccc(CS(=O)(=O)NCCc2c(CCCc3ccc(C(=O)O)cc3)c3cc(Cl)ccc3n2C(c2ccccc2)c2ccccc2)c1` [Example 68, 4-{3-[1-benzhydryl-5-chloro-2-(2-{[(3-methoxybenzyl)sulfonyl]amino}ethyl)-1H-indol-3-yl]propyl}benzoic acid]: 160 nM; `Nc1ccccc1CS(=O)(=O)NCCc1c(CCCc2ccc(C(=O)O)cc2)c2cc(Cl)ccc2n1C(c1ccccc1)c1ccccc1` [Example 69, 4-{3-[2-(2-{[(2-aminobenzyl)sulfonyl]amino}ethyl)-1-benzhydryl-5-chloro-1H-indol-3-yl]propyl}benzoic acid]: 150 nM; `Cc1ccccc1CS(=O)(=O)NCCc1c(CCCc2ccc(C(=O)O)cc2)c2cc(Cl)ccc2n1C(c1ccccc1)c1ccccc1` [Example 70, 4-{3-[1-Benzhydryl-5-chloro-2-(2-{[(2-methylbenzyl)sulfonyl]amino}ethyl)-1H-indol-3-yl]propyl}benzoic acid]: 180 nM.
